# Source: patent US20230293458A1, “MULTIBIOTIC AGENTS AND METHODS OF USING THE SAME” (Flagship Pioneering Innovations V, Inc., priority 2017, published 2023)
# What was measured:
# [1] = Stability of multibiotic agents in Simulated Gastric Fluid (SGF); type: in vitro ADME; conditions: simulated gastric fluid pH 1.6 with pepsin, 37° C., 1 μM
# Description: Assay 3. Stability of multibiotic agents in Simulated Gastric Fluid (SGF). This assay can be used to assess the stability of a multibiotic agent in a stomach.
# Medium was prepared by dissolving 2 g of sodium chloride in 0.6 L in ultrapure water (MilliQ®, Millipore Sigma, Darmstadt, Germany). The pH was adjusted to 1.6 with 1 N hydrochloric acid, and the volume was then adjusted to 1 L with purified water.
# 60 mg FaSSIF powder (Biorelevant™, London, UK) were dissolved in 500 mL buffer (above). Pepsin was added (0.1 mg/mL) (Millipore Sigma, Darmstadt, Germany), and the solution was stirred. The resulting SGF media were used fresh for each experiment.
# Test compounds were dissolved in DMSO stock to 1 mM. An aliquot of the DMSO stock solution was removed and diluted in the SGF Media in 15 mL falcon tubes to generate a total compound concentration of 1 μM. A 1 mL aliquot was immediately removed and diluted once with 1 volume of acetonitrile for T0 timepoint. The mixture was sealed and mixed at 37° C. in an incubator. Aliquots (1 mL) were removed at regular intervals and immediately quenched by the addition of 1 volume of acetonitrile. The resulting samples were analyzed by LC/MS to determine degradation rates in SGF.
# [2] = Stability of multibiotic agents in Simulated Intestinal Fluid (SIF); type: in vitro ADME; conditions: simulated intestinal fluid pH 6.7 with pancreatin, 37° C., 1 μM
# Description: Assay 2. Stability of multibiotic agents in Simulated Intestinal Fluid (SIF). This assay can be used to assess the stability of a multibiotic agent in a small intestine. Phosphate buffer was prepared by dissolving 0.42 g of sodium hydroxide pellets and 3.95 g of monobasic sodium phosphate monohydrate and 6.19 g of sodium chloride in ultrapure water (MilliQ®, Millipore Sigma, Darmstadt, Germany). The pH was adjusted to 6.7 using aq. HCl and aq. NaOH, as necessary, and the solution was diluted with ultrapure water to produce 1 L of the pH 6.7 buffer. 112 mg FaSSIF powder (Biorelevant™, London, UK) was dissolved in 50 mL of the pH 6.7 buffer. 2 to 3 mL of the resulting solution were then added to 500 mg pancreatin (Millipore Sigma, Darmstadt, Germany). The resulting mixture was agitated by finger tapping the vessel containing the mixture until milky suspension formed. At this time, the remainder of the 50 mL FaSSiF/pH 6.7 buffer solution was added. The resulting suspension was flipped upside down 10 times to produce SIF, which was used fresh. Test compounds are dissolved in DMSO stock to 1 mM. An aliquot of the DMSO stock solution is removed and diluted in the SIF media in 15 mL falcon tubes to produce a mixture with a tested compound concentration of 1 μM. A 1 mL aliquot is immediately removed and diluted once with 1 volume of acetonitrile for T0 timepoint. The mixture is sealed and agitated at 37° C. in an incubator. Aliquots (1 mL) are removed at regular intervals and immediately quenched by the addition of 1 volume of acetonitrile. The resulting samples are analyzed by LC/MS to determine degradation rates.
SMILES,Assay 2 (SGF) (% Remaining @ 4 hours) [1],Assay 3 (SIF) (% @ Remaining 4 hours) [2]
"CCCC(=O)OCC(C)(C)[C@@H](OC(=O)CCC)C(=O)NCCC(N)=O [Example 95, [(3R)-4-[(3-amino-3-oxo-propyl)amino]-3-butanoyloxy-2,2-dimethyl-4-oxo-butyl] butanoate]",C (>75% of the tested compound remaining),C (>75% of the tested compound remaining)
"CCCC(=O)O[C@H](C)CC(=O)OCC(C)(C)[C@@H](OC(=O)C[C@@H](C)OC(=O)CCC)C(=O)NCCC(N)=O [Example 96, [(3R)-4-[(3-amino-3-oxo-propyl)amino]-3-[(3R)-3-butanoyloxybutanoyl]oxy-2,2-dimethyl-4-oxo-butyl] (3R)-3-butanoyloxybutanoate]",C (>75% of the tested compound remaining),C (>75% of the tested compound remaining)
"CC(C)(COC(=O)Cc1c[nH]c2ccccc12)[C@@H](OC(=O)Cc1c[nH]c2ccccc12)C(=O)NCCC(N)=O [Example 97, [(3R)-4-[(3-amino-3-oxo-propyl)amino]-3-[2-(1H-indol-3-yl)acetyl]oxy-2,2-dimethyl-4-oxo-butyl] 2-(1H-indol-3-yl)acetate]",C (>75% of the tested compound remaining),C (>75% of the tested compound remaining)
"CC(C)(COC(=O)CCc1c[nH]c2ccccc12)[C@@H](OC(=O)CCc1c[nH]c2ccccc12)C(=O)NCCC(N)=O [Example 98, [(3R)-4-[(3-amino-3-oxo-propyl)amino]-3-[3-(1H-indol-3-yl)propanoyloxy]-2,2-dimethyl-4-oxo-butyl] 3-(1H-indol-3-yl)propanoate]",C (>75% of the tested compound remaining),A (<25% of the tested compound remaining)
"CC(=O)OCc1cnc(C)c(OC(C)=O)c1COC(C)=O [Example 99, [5-acetoxy-4-(acetoxymethyl)-6-methyl-3-pyridyl] methyl acetate]",C (>75% of the tested compound remaining),C (>75% of the tested compound remaining)
"CCCC(=O)OCc1cnc(C)c(OC(=O)CCC)c1COC(=O)CCC [Example 100, [5-butanoyloxy-4-(butanoyloxymethyl)-6-methyl-3-pyridyl]methyl butanoate]",C (>75% of the tested compound remaining),C (>75% of the tested compound remaining)
"CCCC(=O)O[C@H](C)CC(=O)OCc1cnc(C)c(OC(=O)C[C@@H](C)OC(=O)CCC)c1COC(=O)C[C@@H](C)OC(=O)CCC [Example 101, [5-[(3R)-3-butanoyloxybutanoyl]oxy-4-[[(3R)-3-butanoyloxybutanoyl]oxymethyl]-6-methyl-3-pyridyl]methyl (3R)-3-butanoyloxybutanoate]",C (>75% of the tested compound remaining),C (>75% of the tested compound remaining)
"Cc1ncc(COC(=O)Cc2c[nH]c3ccccc23)c(COC(=O)Cc2c[nH]c3ccccc23)c1OC(=O)Cc1c[nH]c2ccccc12 [Example 102, [5-[2-(1H-indol-3-yl)acetyl]oxy-4-[[2-(1H-indol-3-yl)acetyl]oxymethyl]-6-methyl-3-pyridyl]methyl 2-(1H-indol-3-yl)acetate]",C (>75% of the tested compound remaining),B (25-75% of the tested compound remaining)
"Cc1ncc(COC(=O)CCc2c[nH]c3ccccc23)c(COC(=O)CCc2c[nH]c3ccccc23)c1OC(=O)CCc1c[nH]c2ccccc12 [Example 103, [5-[3-(1H-indol-3-yl)propanoyloxy]-4-[3-(1H-indol-3-yl)propanoyloxymethyl]-6-methyl-3-pyridyl]methyl3-(1H-indol-3-yl)propanoate]",C (>75% of the tested compound remaining),A (<25% of the tested compound remaining)
